Test results published in ChEMBL document CHEMBL1201862, “PubChem BioAssay data set” (2004).
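48-hour exposure; five concentrations; linearly interpolated endpoints. GI50: concentration for 50% inhibition of growth.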 Calls of active or inactive are those of the source. Cut-off read from the data, not from the text of the source: active = GI50 up to about 1.1 µM and inactive = higher.

Assays:
Test in all cases: growth of human tumour cells (NCI), 48 h
786-0 = test system: 786-0
COLO 205 = test system: COLO 205
DU-145 = test system: DU-145
EKVX = test system: EKVX
HCC 2998 = test system: HCC 2998
HCT-116 = test system: HCT-116
HOP-92 = test system: HOP-92
Hs-578T = test system: Hs-578T
IGROV-1 = test system: IGROV-1
MDA-MB-435 = test system: MDA-MB-435
NCI-H460 = test system: NCI-H460
RPMI-8226 = test system: RPMI-8226
SF-295 = test system: SF-295
SK-MEL-2 = test system: SK-MEL-2
SK-MEL-5 = test system: SK-MEL-5
SK-OV-3 = test system: SK-OV-3
TK-10 = test system: TK-10
U-251 = test system: U-251
MDA-MB-231 = test system: MDA-MB-231
SNB-75 = test system: SNB-75

Measured: GI50

Cc1ccc(O)c(C2=NNC(c3cccc(Br)c3)C2)c1 (stereo not given)
inactive: 786-0 > 100 µM | COLO 205 > 100 µM | DU-145 81.3 µM | EKVX 35.9 µM | HCC 2998 60.8 µM | HCT-116 40.4 µM | HOP-92 15.4 µM | Hs-578T 37.3 µM | IGROV-1 13 µM | MDA-MB-435 19.8 µM | NCI-H460 33.9 µM | RPMI-8226 21.9 µM | SF-295 61 µM | SK-MEL-2 > 100 µM | SK-MEL-5 71.3 µM | SK-OV-3 34.3 µM | TK-10 > 100 µM | U-251 43.7 µM

COc1ccc2c(c1)/C(=C\c1c(C)nc3n1CCS3)C(=O)N2
inactive: 786-0 35.2 µM | COLO 205 9.42 µM | DU-145 39.1 µM | EKVX 34.5 µM | HCC 2998 19.2 µM | HCT-116 19.2 µM | HOP-92 34.4 µM | IGROV-1 16.7 µM | MDA-MB-231 30.5 µM | MDA-MB-435 3.12 µM | NCI-H460 20 µM | RPMI-8226 34.5 µM | SF-295 16.4 µM | SK-MEL-2 29 µM | SK-MEL-5 34 µM | SK-OV-3 19.7 µM | SNB-75 28.1 µM | TK-10 35.8 µM | U-251 22.1 µM

CN(C)c1ccc(/C=C2\C[C@H]3[C@@H]4CCc5cc(OCCN6CCCC6)ccc5[C@H]4CC[C@]3(C)C2=O)cc1
inactive: 786-0 1.32 µM | COLO 205 1.52 µM | DU-145 1.89 µM | EKVX 2.2 µM | HCC 2998 1.53 µM | HCT-116 1.21 µM | IGROV-1 1.13 µM | MDA-MB-231 1.53 µM | MDA-MB-435 1.55 µM | NCI-H460 1.59 µM | RPMI-8226 1.75 µM | SF-295 1.86 µM | SK-MEL-2 1.98 µM | SK-MEL-5 1.73 µM | SK-OV-3 1.87 µM | SNB-75 1.71 µM | TK-10 1.64 µM

CCCCCCCCCCCCCCCCOCC(CC(F)(F)P(=O)(O)O)OC(C)=O (stereo not given)
inactive: 786-0 > 50 µM | COLO 205 > 50 µM | DU-145 > 50 µM | EKVX > 50 µM | HCC 2998 > 50 µM | HCT-116 > 50 µM | HOP-92 > 50 µM | IGROV-1 > 50 µM | MDA-MB-231 > 50 µM | MDA-MB-435 > 50 µM | NCI-H460 > 50 µM | RPMI-8226 > 50 µM | SF-295 > 50 µM | SK-MEL-2 > 50 µM | SK-MEL-5 > 50 µM | SK-OV-3 > 50 µM | SNB-75 > 50 µM | TK-10 > 50 µM | U-251 > 50 µM

COC(=O)CCCc1ccc2c(c1)CC1(Cc3ccccc3C1)C2
inactive: 786-0 > 100 µM | COLO 205 26.3 µM | EKVX > 100 µM | HCC 2998 70.1 µM | HCT-116 26 µM | HOP-92 > 100 µM | Hs-578T > 100 µM | IGROV-1 > 100 µM | MDA-MB-231 > 100 µM | MDA-MB-435 20.6 µM | RPMI-8226 28.4 µM | SF-295 > 100 µM | SK-MEL-2 19.5 µM | SK-MEL-5 20.1 µM | SK-OV-3 > 100 µM | TK-10 > 100 µM | U-251 > 100 µM

CCOC(=O)CCC1(CCC(=O)OCC)CCCCCCCCC(CCC(=O)OCC)(CCC(=O)OCC)C(=O)C1=O
inactive: 786-0 > 100 µM | COLO 205 > 100 µM | DU-145 > 100 µM | EKVX > 100 µM | HCC 2998 > 100 µM | HCT-116 > 100 µM | HOP-92 > 100 µM | Hs-578T > 100 µM | IGROV-1 > 100 µM | MDA-MB-435 > 100 µM | NCI-H460 > 100 µM | SF-295 > 100 µM | SK-MEL-2 > 100 µM | SK-MEL-5 > 100 µM | SK-OV-3 > 100 µM | SNB-75 82.8 µM | TK-10 > 100 µM | U-251 > 100 µM

O=C1CC2(c3ccccc3)ON=C(c3ccccc3)N2c2ccccc2N1 (stereo not given)
inactive: 786-0 88.7 µM | COLO 205 51.8 µM | DU-145 61.5 µM | EKVX 57.1 µM | HCC 2998 65 µM | HCT-116 34.3 µM | HOP-92 22.1 µM | IGROV-1 58.5 µM | MDA-MB-231 40.8 µM | MDA-MB-435 20 µM | NCI-H460 36.7 µM | RPMI-8226 63.4 µM | SF-295 > 100 µM | SK-MEL-2 50.2 µM | SK-OV-3 19.7 µM | SNB-75 52 µM | TK-10 93.5 µM | U-251 80.9 µM

O=C(NCC(C(=O)OCc1ccccc1)C(=O)OCc1ccccc1)OCc1ccccc1
inactive: 786-0 > 100 µM | COLO 205 > 100 µM | DU-145 > 100 µM | EKVX 72.3 µM | HCC 2998 > 100 µM | HOP-92 > 100 µM | Hs-578T > 100 µM | IGROV-1 > 100 µM | MDA-MB-435 > 100 µM | NCI-H460 94.6 µM | RPMI-8226 > 100 µM | SF-295 > 100 µM | SK-MEL-2 > 100 µM | SK-MEL-5 35.9 µM | SK-OV-3 > 100 µM | SNB-75 > 100 µM | TK-10 > 100 µM | U-251 85.7 µM

CCN(CC)CCC1(C(=O)OC)SCCc2ccc(C)cc21 (stereo not given)
inactive: 786-0 > 100 µM | COLO 205 > 100 µM | DU-145 > 100 µM | EKVX > 100 µM | HCC 2998 > 100 µM | HCT-116 > 100 µM | HOP-92 > 100 µM | Hs-578T > 100 µM | IGROV-1 > 100 µM | MDA-MB-435 > 100 µM | NCI-H460 > 100 µM | RPMI-8226 > 100 µM | SF-295 > 100 µM | SK-MEL-2 > 100 µM | SK-MEL-5 > 100 µM | SK-OV-3 > 100 µM | SNB-75 63.2 µM | TK-10 > 100 µM | U-251 > 100 µM

CC(C)(C)OC(=O)[C@@H]1CCC(=S)N1Cc1ccccc1
inactive: 786-0 > 100 µM | COLO 205 > 100 µM | DU-145 > 100 µM | EKVX 92 µM | HCC 2998 > 100 µM | HCT-116 > 100 µM | HOP-92 > 100 µM | IGROV-1 > 100 µM | MDA-MB-231 > 100 µM | MDA-MB-435 > 100 µM | NCI-H460 > 100 µM | RPMI-8226 > 100 µM | SF-295 > 100 µM | SK-MEL-2 > 100 µM | SK-MEL-5 47.4 µM | SK-OV-3 > 100 µM | SNB-75 37.8 µM | TK-10 > 100 µM | U-251 > 100 µM

O=C(N/N=C1\C(=O)Nc2c(Cl)cc(Cl)cc21)C(=O)Nc1cccc(C(F)(F)F)c1
inactive: 786-0 > 100 µM | COLO 205 > 100 µM | EKVX > 100 µM | HCC 2998 > 100 µM | HCT-116 > 100 µM | HOP-92 > 100 µM | Hs-578T > 100 µM | IGROV-1 > 100 µM | MDA-MB-231 94.4 µM | MDA-MB-435 45.5 µM | NCI-H460 > 100 µM | SF-295 > 100 µM | SK-MEL-2 > 100 µM | SK-MEL-5 > 100 µM | SK-OV-3 > 100 µM | SNB-75 > 100 µM | TK-10 > 100 µM | U-251 97.5 µM
